17 compounds from patent US7491794B2, “Macrocyclic compounds as inhibitors of viral replication” (Intermune, Inc., priority 2003, dated 2009) can be followed below.

Each structure is given as a SMILES string. Where two headings read alike, the source gives them in different places.

In assay [1] the test system is HCV sub-genomic replicon, GS4.3. Briefly: Quantitation by ELISA of NPTII in the HCV sub-genomic replicon, GS4.3, Section B. Conditions: Hepatitis C virus, read-out: Replicon EC50. In kind it is cell-based. The essentials:
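NPTII marker protein in lysates was quantified by ELISA read at 450 nm after 72 h inhibitor exposure (3-fold series, final DMSO 1%, G418-free medium) of HuH-7 cells stably harbouring the subgenomic HCV replicon. Values relative to DMSO-treated controls; 4-parameter curves gave EC50.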
A general note: In an ELISA, binding on a coated surface is turned into a signal by an enzyme label.

For another assay, the target named is T1, NS3-NS4A protease (Hepatitis C virus genotype 1a, UniProt P27958).
T1 construct: Recombinant E. coli or Baculovirus full-length NS3 was diluted to 3.33 μM with assay buffer; made in house; host or cells: E. coli or baculovirus (BV) system
Briefly: NS3-NS4A protease assay (NS3 inhibition assay, RETS1 substrate), Section B. In kind it is biochemical. The essentials: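 Kinetic fluorescence read (335 nm excitation, 495 nm emission, 30 min) of RETS1 cleavage by NS3/NS4A-2 complex, 2 nM E. coli or 3 nM baculovirus NS3, after 10 min room-temperature compound pre-incubation. Four-parameter-fit IC50s converted to Ki by Cheng–Prusoff, Ki=IC50/(1+[S]/Km).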

T1 sequence (P27958 1027-1657): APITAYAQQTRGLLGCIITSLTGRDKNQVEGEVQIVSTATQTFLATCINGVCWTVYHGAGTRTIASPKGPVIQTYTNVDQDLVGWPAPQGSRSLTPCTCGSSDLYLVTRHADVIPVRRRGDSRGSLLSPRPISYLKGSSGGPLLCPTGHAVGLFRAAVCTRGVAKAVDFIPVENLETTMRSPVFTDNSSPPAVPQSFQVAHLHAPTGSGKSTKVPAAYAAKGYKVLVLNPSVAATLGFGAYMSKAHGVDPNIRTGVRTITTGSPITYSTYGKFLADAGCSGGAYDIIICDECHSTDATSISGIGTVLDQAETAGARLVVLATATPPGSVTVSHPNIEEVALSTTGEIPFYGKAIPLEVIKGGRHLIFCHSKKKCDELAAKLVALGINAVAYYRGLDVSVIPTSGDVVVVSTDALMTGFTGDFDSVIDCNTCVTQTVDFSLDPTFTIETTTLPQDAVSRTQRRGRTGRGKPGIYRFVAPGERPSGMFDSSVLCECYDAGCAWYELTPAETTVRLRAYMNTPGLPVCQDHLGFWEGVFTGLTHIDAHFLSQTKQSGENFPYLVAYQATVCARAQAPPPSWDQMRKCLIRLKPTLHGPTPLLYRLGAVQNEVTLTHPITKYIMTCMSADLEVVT

For orientation: EC50 means the midpoint of the concentration-response curve. As usually defined, the IC50 is the concentration that gives 50% inhibition. `CC(C)(C)OC(=O)N[C@H]1CCCCC/C=C\[C@@H]2C[C@@]2(C(=O)O)NC(=O)[C@@H]2C[C@@H](OC(=O)N3CCc4cc(F)ccc4C3)CN2C1=O` [AR00304063, (1S,4R,6S,14S,18R)-14-tert-Butoxycarbonylamino-18-(6-fluoro-3,4-dihydro-1H-isoquinoline-2-carbonyloxy)-2,15-dioxo-3,16-diaza-tricyclo[14.3.0.0^4,6]nonadec-7-ene-4-carboxylic acid]: the EC50 in assay [1] (GS4.3 cells, 72 h incubation) was < 10 µM. For the same compound, the IC50 on NS3-NS4A protease (read-out: NS3-NS4A IC50) was < 1 µM.
For `CC(C)(C)OC(=O)N[C@H]1CCCCC/C=C\[C@@H]2C[C@@]2(C(=O)O)NC(=O)[C@@H]2C[C@@H](OC(=O)N3Cc4ccccc4C4(CCC4)C3)CN2C1=O` [AR00304065, (1S,4R,6S,14S,18R)-14-tert-Butoxycarbonylamino-18-(4,4-spirocyclobutyl-3,4-dihydro-1H-isoquinoline-2-carbonyloxy)-2,15-dioxo-3,16-diaza-tricyclo[14.3.0.0^4,6]nonadec-7-ene-4-carboxylic acid] the same measures were < 10 µM and < 1 µM.
For `CC(C)(C)OC(=O)N[C@H]1CCCCCC=C[C@@H]2C[C@@]2(C(=O)O)NC(=O)[C@@H]2C[C@@H](OC(=O)N3Cc4ccccc4C(C)(C)C3)CN2C1=O` [AR00304066, (1S,4R,6S,14S,18R)-14-tert-Butoxycarbonylamino-18-(4,4-dimethyl-3,4-dihydro-1H-isoquinoline-2-carbonyloxy)-2,15-dioxo-3,16-diaza-tricyclo[14.3.0.0^4,6]nonadec-7-ene-4-carboxylic acid] the same measures were < 10 µM and < 1 µM.
For `CC1CN(C(=O)O[C@@H]2C[C@H]3C(=O)N[C@]4(C(=O)O)C[C@H]4C=CCCCCC[C@H](NC(=O)OC(C)(C)C)C(=O)N3C2)Cc2ccccc21` (stereo partly drawn) [AR00304067, (1S,4R,6S,14S,18R)-14-tert-Butoxycarbonylamino-18-(4-methyl-3,4-dihydro-1H-isoquinoline-2-carbonyloxy)-2,15-dioxo-3,16-diaza-tricyclo[14.3.0.0^4,6]nonadec-7-ene-4-carboxylic acid] the same measures were < 10 µM and < 1 µM.
Consider `CC(C)[C@@H](NC(=O)c1ccc(N(C)C)nc1)C(=O)N[C@H]1CCCCC/C=C\[C@@H]2C[C@@]2(C(=O)O)NC(=O)[C@@H]2C[C@@H](OC(=O)N3CCc4ccccc4C3)CN2C1=O` [AR00304072, (1S,4R,6S,14S,18R)-18-(3,4-Dihydro-1H-isoquinoline-2-carbonyloxy)-14-{2-[(6-dimethylamino-pyridine-3-carbonyl)-amino]-3-methyl-butyrylamino}-2,15-dioxo-3,16-diaza-tricyclo[14.3.0.0^4,6]nonadec-7-ene-4-carboxylic acid], for which the EC50 in assay [1] (72 h) was < 10 µM. Also, on NS3-NS4A protease, the IC50 is < 1 µM.
For `CC(C)[C@@H](NC(=O)c1cccnc1)C(=O)N[C@H]1CCCCC/C=C\[C@@H]2C[C@@]2(C(=O)O)NC(=O)[C@@H]2C[C@@H](OC(=O)N3CCc4ccccc4C3)CN2C1=O` [AR00304073, (1S,4R,6S,14S,18R)-18-(3,4-Dihydro-1H-isoquinoline-2-carbonyloxy)-14-{3-methyl-2-[(pyridine-3-carbonyl)-amino]-butyrylamino}-2,15-dioxo-3,16-diaza-tricyclo[14.3.0.0^4,6]nonadec-7-ene-4-carboxylic acid] the same measures were < 10 µM and < 1 µM.
Consider `O=C(N[C@H]1CCCCC/C=C\[C@@H]2C[C@@]2(C(=O)O)NC(=O)[C@@H]2C[C@@H](OC(=O)N3CCc4c(F)cccc4C3)CN2C1=O)OC1CCCC1` [AR00304074, (1S,4R,6S,14S,18R)-14-Cyclopentyloxycarbonylamino-18-(5-fluoro-3,4-dihydro-1H-isoquinoline-2-carbonyloxy)-2,15-dioxo-3,16-diaza-tricyclo[14.3.0.0^4,6]nonadec-7-ene-4-carboxylic acid], for which the concentration for a half-maximal effect (EC50) in assay [1] (GS4.3 cells, 72 h incubation) is < 10 µM. The IC50 on NS3-NS4A protease (read-out: NS3-NS4A IC50) is < 1 µM.
For `O=C(N[C@H]1CCCCCC=C[C@@H]2C[C@@]2(C(=O)O)NC(=O)[C@@H]2C[C@@H](OC(=O)N3CCc4cccc(C(F)(F)F)c4C3)CN2C1=O)OC1CCCC1` [AR00304075, (1S,4R,6S,14S,18R)-14-Cyclopentyloxycarbonylamino-2,15-dioxo-18-(8-trifluoromethyl-3,4-dihydro-1H-isoquinoline-2-carbonyloxy)-3,16-diaza-tricyclo[14.3.0.0^4,6]nonadec-7-ene-4-carboxylic acid] the same measures were < 10 µM and < 1 µM.
For `O=C(N[C@H]1CCCCC/C=C\[C@@H]2C[C@@]2(C(=O)O)NC(=O)[C@@H]2C[C@@H](OC(=O)N3Cc4ccccc4C3)CN2C1=O)OC1CCCC1` [AR00304076, (1S,4R,6S,14S,18R)-14-Cyclopentyloxycarbonylamino-18-(1,3-dihydro-isoindole-2-carbonyloxy)-2,15-dioxo-3,16-diaza-tricyclo[14.3.0.0^4,6]nonadec-7-ene-4-carboxylic acid] the same measures were < 1 µM and < 0.1 µM.
In the case of `O=C(NC1CCCC1)N[C@H]1CCCCC/C=C\[C@@H]2C[C@@]2(C(=O)O)NC(=O)[C@@H]2C[C@@H](OC(=O)N3CCc4c(F)cccc4C3)CN2C1=O` [AR00304077, (1S,4R,6S,14S,18R)-14-(3-Cyclopentyl-ureido)-18-(5-fluoro-3,4-dihydro-1H-isoquinoline-2-carbonyloxy)-2,15-dioxo-3,16-diaza-tricyclo[14.3.0.0^4,6]nonadec-7-ene-4-carboxylic acid], the EC50 in assay [1] (GS4.3 cells, 72 h incubation) is < 10 µM. The IC50 on NS3-NS4A protease (read-out: NS3-NS4A IC50) is < 0.1 µM.
For `O=C(NC1CCCC1)N[C@H]1CCCCC/C=C\[C@@H]2C[C@@]2(C(=O)O)NC(=O)[C@@H]2C[C@@H](OC(=O)N3CCc4cccc(C(F)(F)F)c4C3)CN2C1=O` [AR00304078, (1S,4R,6S,14S,18R)-14-(3-Cyclopentyl-ureido)-2,15-dioxo-18-(8-trifluoromethyl-3,4-dihydro-1H-isoquinoline-2-carbonyloxy)-3,16-diaza-tricyclo[14.3.0.0^4,6]nonadec-7-ene-4-carboxylic acid], the EC50 in assay [1] (GS4.3 cells, 72 h incubation) was < 1 µM. Moreover, the IC50 at NS3-NS4A protease (read-out: NS3-NS4A IC50) was < 0.1 µM.
For `O=C(NC1CCCC1)N[C@H]1CCCCC/C=C\[C@@H]2C[C@@]2(C(=O)O)NC(=O)[C@@H]2C[C@@H](OC(=O)N3Cc4ccccc4C3)CN2C1=O` [AR00304079, (1S,4R,6S,14S,18R)-14-(3-Cyclopentyl-ureido)-18-(1,3-dihydro-isoindole-2-carbonyloxy)-2,15-dioxo-3,16-diaza-tricyclo[14.3.0.0^4,6]nonadec-7-ene-4-carboxylic acid] the same measures were < 1 µM and < 0.1 µM.
For `O=C(NC1CCCC1)N[C@H]1CCCCC/C=C\[C@@H]2C[C@@]2(C(=O)NS(=O)(=O)C2CC2)NC(=O)[C@@H]2C[C@@H](OC(=O)N3CCc4c(F)cccc4C3)CN2C1=O` [AR00304080, (1S,4R,6S,14S,18R)-5-Fluoro-3,4-dihydro-1H-isoquinoline-2-carboxylic acid 14-(3-cyclopentyl-ureido)-4-cyclopropanesulfonylaminocarbonyl-2,15-dioxo-3,16-diaza-tricyclo[14.3.0.0^4,6]nonadec-7-en-18-yl ester] the same measures were < 0.1 µM and < 0.1 µM.
For `O=C(NC1CCCC1)N[C@H]1CCCCC/C=C\[C@@H]2C[C@@]2(C(=O)NS(=O)(=O)C2CC2)NC(=O)[C@@H]2C[C@@H](OC(=O)N3CCc4cccc(C(F)(F)F)c4C3)CN2C1=O` [AR00304081, (1S,4R,6S,14S,18R)-8-Trifluoromethyl-3,4-dihydro-1H-isoquinoline-2-carboxylic acid 14-(3-cyclopentyl-ureido)-4-cyclopropanesulfonylaminocarbonyl-2,15-dioxo-3,16-diaza-tricyclo[14.3.0.0^4,6]nonadec-7-en-18-yl ester] the same measures were < 1 µM and < 0.1 µM.
For the compound `O=C(NC1CCCC1)N[C@H]1CCCCC/C=C\[C@@H]2C[C@@]2(C(=O)NS(=O)(=O)C2CC2)NC(=O)[C@@H]2C[C@@H](OC(=O)N3Cc4ccccc4C3)CN2C1=O` [AR00304082, (1S,4R,6S,14S,18R)-1,3-Dihydro-isoindole-2-carboxylic acid 14-(3-cyclopentyl-ureido)-4-cyclopropanesulfonylaminocarbonyl-2,15-dioxo-3,16-diaza-tricyclo[14.3.0.0^4,6]nonadec-7-en-18-yl ester], the EC50 in assay [1] (GS4.3 cells, 72 h incubation) is < 0.1 µM. For the same compound, the IC50 on NS3-NS4A protease (read-out: NS3-NS4A IC50) is < 0.1 µM.
As for `CC(C)(C)Nc1nc2c(s1)CN(C(=O)O[C@@H]1C[C@H]3C(=O)N[C@]4(C(=O)O)C[C@H]4/C=C\CCCCC[C@H](NC(=O)OC(C)(C)C)C(=O)N3C1)CC2` [AR00304103, (1S,4R,6S,14S,18R)-14-tert-Butoxycarbonylamino-18-(2-tert-butylamino-6,7-dihydro-4H-thiazolo[5,4-c]pyridine-5-carbonyloxy)-2,15-dioxo-3,16-diaza-tricyclo[14.3.0.0^4,6]nonadec-7-ene-4-carboxylic acid], in assay [1] (GS4.3 cells, 72 h incubation), the half-maximal effective concentration (EC50) was < 10 µM. Also, the IC50 at NS3-NS4A protease (read-out: NS3-NS4A IC50) is < 10 µM.
For the compound `O=C(N[C@H]1CCCCC/C=C\[C@@H]2C[C@@]2(C(=O)O)NC(=O)[C@@H]2C[C@@H](OC(=O)N3CCc4ccccc4C3)CN2C1=O)OCCF` [AR00304125, (1S,4R,6S,14S,18R)-18-(3,4-Dihydro-1H-isoquinoline-2-carbonyloxy)-14-(2-fluoro-ethoxycarbonylamino)-2,15-dioxo-3,16-diaza-tricyclo[14.3.0.0^4,6]nonadec-7-ene-4-carboxylic acid], the EC50 in assay [1] (GS4.3 cells, 72 h incubation) was < 10 µM. Besides, the IC50 on NS3-NS4A protease (read-out: NS3-NS4A IC50) was < 1 µM.
